# Columns and labels:
# cancer cell lines = details: cited from earlier work
# xenograft tumor = details: well tolerated doses, oral administration; cited from earlier work
# PLK1 = PLK1 (Homo sapiens, UniProt P53350); details: among a panel of 296 kinases, including other PLK members; cited from earlier work
# [1] = system: cell lines, both from solid as well as hematologic tumors; details: large number of cell lines; cited from earlier work
# [2] = rodent and nonrodent species; cited from earlier work
# [3] = system: HT29 human colon adenocarcinoma xenografts; details: combination with irinotecan compared to each agent alone; cited from earlier work
# [4] = system: disseminated model of AML; details: combination therapy with cytarabine; cited from earlier work
# [5] = in vivo; cited from earlier work
# [6] = system: patients with relapsed or refractory acute myeloid leukemia (R/R AML); test: Phase 1b/2 study (NCT03303339) of onvansertib in combination with decitabine; format: in vivo; details: oral, days 1 through 5, in combination with decitabine 20 mg/m^2 intravenously
# Text: The terms “complete remission” or “complete recovery” as used herein can refer to the absence of extramedullary disease (e.g., leukemic cell aggregates outside of bone marrow), <5% blasts in the bone marrow, absence of circulating blasts and blasts with Auer rods (e.g., inclusion bodies), and platelets≥100×10^9/L and neutrophils≥1.0×10^9/L. The term “complete remission with incomplete hematologic recovery” can refer to all CR criteria except for residual neutropenia (neutrophils<1.0×10^9/L) or thrombocytopenia (platelets<100×10^9/L). The term “morphologic leukemia free state” (MFLS) can refer to <5% blasts in the bone marrow with no blasts with Auer rods and no extramedullary disease. The terms “partial response” or “partial remission” can refer to the presence of all hematologic criteria of CR, decrease of bone marrow blast percentage to 5% to 25%, and/or decrease of pretreatment bone marrow blast percentage by at least 50%. The term “Bone marrow response” (BMR) can refer to at least 50% decrease in bone marrow blast from baseline. In some embodiments, the term “overall response rate” (ORR) can refer to the combined CR, CRi, MFLS, and PR. In some embodiments a combined CR/CRi value is reported. […]
# [7] = system: adult subjects with advanced/metastatic solid tumors; details: cited from earlier work
# Chain of PLK1 (P53350 whole entry): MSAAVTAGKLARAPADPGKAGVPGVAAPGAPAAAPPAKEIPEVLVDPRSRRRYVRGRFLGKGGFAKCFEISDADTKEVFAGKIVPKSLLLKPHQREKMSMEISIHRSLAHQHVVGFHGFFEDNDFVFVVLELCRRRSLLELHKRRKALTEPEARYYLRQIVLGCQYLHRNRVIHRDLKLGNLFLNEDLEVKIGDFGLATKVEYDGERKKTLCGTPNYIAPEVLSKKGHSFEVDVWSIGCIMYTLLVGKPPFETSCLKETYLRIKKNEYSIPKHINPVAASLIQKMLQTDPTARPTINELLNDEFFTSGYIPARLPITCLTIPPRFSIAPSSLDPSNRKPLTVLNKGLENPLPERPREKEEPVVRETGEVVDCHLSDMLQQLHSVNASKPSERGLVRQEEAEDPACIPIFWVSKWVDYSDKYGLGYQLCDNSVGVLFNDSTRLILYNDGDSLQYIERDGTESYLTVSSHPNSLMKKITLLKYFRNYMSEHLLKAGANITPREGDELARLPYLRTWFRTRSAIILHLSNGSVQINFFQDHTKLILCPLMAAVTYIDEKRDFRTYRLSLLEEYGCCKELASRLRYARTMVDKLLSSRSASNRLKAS
smiles,measurement,setting,value
"CN1CCN(c2ccc(OC(F)(F)F)c(Nc3ncc4c(n3)-c3c(c(C(N)=O)nn3CCO)CC4)c2)CC1 [onvansertib, 1-(2-hydroxyethyl)-8-{[5-(4-methylpiperazin-1-yl)-2-(trifluoromethoxy)phenyl]amino}-4,5-dihydro-1H-pyrazolo[4,3-h] quinazoline-3-carboxamide]",effect on cell cycle,cancer cell lines,potently causes a mitotic cell-cycle arrest followed by apoptosis
same,xenograft tumor growth,xenograft tumor,inhibits xenograft tumor growth
same,specificity for PLK1,PLK1,high specificity
same,potency in proliferation assays,[1],low nanomolar activity
same,oral bioavailability,[2],good oral bioavailability
same,tumor regression,[3],enhanced tumor regression
same,survival of animals,[4],prolonged survival
same,half-life,[5],about 24 hours
same,maximum tolerated dose,[6],60 mg/m^2
same,recommended phase 2 dose,[7]; advanced/metastatic solid tumors,24 mg/m^2
same,primary dose-limiting toxicities,[7]; in vivo,neutropenia and thrombocytopenia
same,patients with stable disease,[7]; of 16 evaluable patients,5 patients
same,recovery of hematologic toxicities,[7]; reversible,≤ 3 weeks
